# Reference: ChEMBL document CHEMBL1140338, “Range and sensitivity as descriptors of molecular property spaces in dynamic QSAR analyses” (J Med Chem, 2005)
# What was measured:
# [1] = Binding affinity for alpha 1d adrenoceptor
# [2] = Binding affinity for alpha 1b adrenoceptor
# [3] = Binding affinity for alpha 1a adrenoceptor
Compound,pK [1],pK [2],pK [3]
COc1cccc2c1CC[C@H]1CN(CCn3c(=O)[nH]c4c(sc5cccnc54)c3=O)C[C@@H]21,9.01,8.16,9.66
CCCC(=O)N1CCCN(c2nc(N)c3cc(OC)c(OC)cc3n2)CC1,9,9,9.3
COc1ccccc1N1CCN(CCCCN2C(=O)c3ccccc3C2=O)CC1,9.1,7.82,8.7
O=C(NC1CCN(CCc2c[nH]c3ccccc23)CC1)c1ccccc1,6.8,7.4,8.4
COc1ccccc1N1CCN(CCCNc2c(C)c(=O)n(C)c(=O)n2C)CC1,8,7.4,9.2
COC(=O)C1=C(C)NC(C)=C(C(=O)NCCCN2CCC(c3ccccc3)(c3ccccc3)CC2)C1c1ccc([N+](=O)[O-])cc1 (stereo unspecified),7.18,7.89,9.64
COc1ccccc1N1CCN(CCCNC(=O)c2cccc3c(=O)c(C)c(-c4ccccc4)oc23)CC1,8.6,,9
O=C(CCCN1CCC2(CC1)C(=O)NCN2c1ccccc1)c1ccc(F)cc1,7.89,9.3,8.1
C[C@H](CN1CCN(c2cc(F)c(F)cc2F)CC1)N1C(=O)CC2(CCCC2)CC1=O,8.8,6.72,6.53
CC1=C(C(N)=O)[C@H](c2ccc([N+](=O)[O-])cc2)C(C(=O)NCCCCN2CCC(c3ccccc3)(c3ccccc3)CC2)=C(C)N1,6.4,6.48,8.72
COc1cc2nc(N3CCN(C(=O)COc4c(OC)cccc4C(C)C)CC3)nc(N)c2cc1OC,8.59,9.52,8.72
C=Cc1sc2ccc(Cl)c3c2c1CN(C)CC3,8.28,7.2,7.36
COc1cc2nc(N3CCN(C(=O)C4COc5ccccc5O4)CC3)nc(N)c2cc1OC (stereo unspecified),8.4,9,
COc1cc2c(cc1O)C1Cc3ccc(OC)c(O)c3CN1CC2 (stereo unspecified),7.6,6.44,6.21
COc1ccccc1N1CCN(CCN2C(=O)CC3(CCCC3)CC2=O)CC1,8.2,6.2,6.6
COC(=O)[C@H]1[C@H]2C[C@H]3c4[nH]c5ccccc5c4CCN3C[C@@H]2CC[C@@H]1O,6.6,6.29,6.85
COC(=O)C1=C(C)NC(C)=C(C(=O)OCCCN2CCC(c3ccccc3)(c3ccccc3)CC2)[C@H]1c1cccc([N+](=O)[O-])c1,7,7.26,9.82
COc1cccc(OC)c1OCCNCC1CSc2ccccc2O1 (stereo unspecified),9.4,8.4,9.7
C[C@H](Cc1cc2c(c(C(N)=O)c1)N(CCCO)CC2)NCCOc1ccccc1OCC(F)(F)F,8.7,7.7,10.4
Cc1c[nH]c(=O)n(CCCN2CCN(c3ccc(F)cc3OCC(F)(F)F)CC2)c1=O,7,7.1,9
COc1cc2nc(N3CCN(C(=O)C4CCCO4)CC3)nc(N)c2cc1OC (stereo unspecified),8.6,,8.2
COc1cc2nc(N(C)CCCNC(=O)C3CCCO3)nc(N)c2cc1OC (stereo unspecified),8.5,8,8
Cc1ccc(N(CC2=NCCN2)c2cccc(O)c2)cc1,8.1,8.1,8.8
COc1ccccc1N1CCN(CCN(C(=O)C2CCCCC2)c2ccccn2)CC1,7.2,6.73,7.24
COc1c(C)c(C)c(O)c(C)c1CN(C)CCOc1cc(C)c(O)cc1C(C)C,8.92,8.92,9.4
CCC1=C(C(N)=O)[C@H](c2ccc([N+](=O)[O-])cc2)C(C(=O)NCCCN2CCC(c3ccccc3)(c3ccccc3)CC2)=C(COCCN)N1,6.4,6.49,9.19
COc1cccc(OC)c1OCCNCC1COc2ccccc2O1 (stereo unspecified),9.6,,9.8
COc1cc2nc(N3CCN(C(=O)c4ccco4)[C@H]4CCCC[C@H]43)nc(N)c2cc1OC,8.49,9.89,7.92
COc1cc2c(cc1OC)CN(c1cc(N)c3cc(OC)c(OC)cc3n1)CC2,10.4,10.1,10.4
CC(C)(Cc1c[nH]c2ccc(Cl)cc12)NCCOc1ccccc1OCC1CC1,7.8,7.8,9.22
